This is an account of results in publication PMC10261046, “Mechanism of small molecule inhibition of Plasmodium falciparum myosin A informs antimalarial drug design” (Nature Communications, 2023).

The target in experiment [1] is T1, PfMyoA (Plasmodium falciparum myosin A) (Plasmodium falciparum, UniProt Q8IDR3). The experiment is described as follows: X-ray crystal structure, […] Å. In kind it is binding. Further details: gene MyoA; with PfELC and PfMTIP light chains.
Target sequence in this assay (Q8IDR3 whole entry): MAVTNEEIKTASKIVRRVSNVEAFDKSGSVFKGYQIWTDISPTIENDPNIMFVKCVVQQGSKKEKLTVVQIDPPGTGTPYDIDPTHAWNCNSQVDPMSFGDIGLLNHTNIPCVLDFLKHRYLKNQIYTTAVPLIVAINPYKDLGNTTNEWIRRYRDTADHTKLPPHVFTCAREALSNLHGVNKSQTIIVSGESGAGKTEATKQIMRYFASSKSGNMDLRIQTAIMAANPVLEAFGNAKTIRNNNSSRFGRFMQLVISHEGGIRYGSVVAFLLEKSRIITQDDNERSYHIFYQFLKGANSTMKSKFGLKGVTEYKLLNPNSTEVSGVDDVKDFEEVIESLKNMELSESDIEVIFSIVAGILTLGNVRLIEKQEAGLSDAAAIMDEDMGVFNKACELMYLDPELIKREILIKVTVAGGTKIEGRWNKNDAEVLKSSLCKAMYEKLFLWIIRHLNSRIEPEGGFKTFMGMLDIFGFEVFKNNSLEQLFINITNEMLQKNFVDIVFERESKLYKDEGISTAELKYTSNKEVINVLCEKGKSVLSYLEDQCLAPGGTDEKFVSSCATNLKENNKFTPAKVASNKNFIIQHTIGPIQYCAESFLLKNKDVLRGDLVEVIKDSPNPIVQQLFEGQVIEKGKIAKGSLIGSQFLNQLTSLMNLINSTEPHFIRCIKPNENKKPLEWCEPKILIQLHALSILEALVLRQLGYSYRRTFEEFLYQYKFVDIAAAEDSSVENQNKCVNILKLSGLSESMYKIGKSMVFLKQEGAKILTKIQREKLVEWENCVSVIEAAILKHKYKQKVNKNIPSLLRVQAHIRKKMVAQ
Target sequence in this assay (Q8I4W8 entry or part of it, further chain): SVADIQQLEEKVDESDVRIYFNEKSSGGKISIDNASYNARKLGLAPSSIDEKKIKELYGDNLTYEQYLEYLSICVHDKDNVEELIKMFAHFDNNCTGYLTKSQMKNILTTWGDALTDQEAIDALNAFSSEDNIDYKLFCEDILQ
Target sequence in this assay (Q8IJM4 entry or part of it, further chain): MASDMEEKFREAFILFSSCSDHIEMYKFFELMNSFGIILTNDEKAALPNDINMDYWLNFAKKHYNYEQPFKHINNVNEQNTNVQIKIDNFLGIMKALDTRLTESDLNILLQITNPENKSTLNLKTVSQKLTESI
Experiment [2] deals with T1, PfMyoA (Plasmodium falciparum myosin A). Briefly: stopped-flow fluorescence transient kinetics; Kd printed in text is in the presence of […] KNX-002. Format: binding. Further details: gene MyoA; full length PfMyoA heavy chain with light chains; with PfELC and PfMTIP light chains.
Target sequence in this assay (Q8IDR3 whole entry): as the sequence (Q8IDR3 whole entry) above
Target sequence in this assay (Q8IJM4 entry or part of it, further chain): as the sequence (Q8IJM4 entry or part of it, further chain) above
Target sequence in this assay (Q8I4W8 entry or part of it, further chain): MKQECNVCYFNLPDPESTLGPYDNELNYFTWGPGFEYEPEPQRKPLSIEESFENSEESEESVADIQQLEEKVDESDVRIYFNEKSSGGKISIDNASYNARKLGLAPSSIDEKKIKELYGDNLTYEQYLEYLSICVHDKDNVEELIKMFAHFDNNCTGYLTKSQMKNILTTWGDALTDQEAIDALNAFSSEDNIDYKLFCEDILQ
The target is the same in experiment [3]. Briefly: X-ray crystal structure ([…] Å) and affinity measurement for nucleotide-free PfMyoA; also basal and actin-activated ATPase inhibition (IC50 […]). Format: binding. Further details: gene MyoA; with PfELC and PfMTIP light chains.
Target sequence in this assay (Q8IDR3 whole entry): as the sequence (Q8IDR3 whole entry) above
Target sequence in this assay (Q8IJM4 entry or part of it, further chain): as the sequence (Q8IJM4 entry or part of it, further chain) above
The target of experiment [4] is T2, PfMyoA triple mutant (Plasmodium falciparum, UniProt Q8IDR3, F270Y/F471A/F645H).
T2 construct: gene MyoA; full length PfMyoA heavy chain triple mutant, co-expressed with light chains PfELC and PfMTIP; with PfELC and PfMTIP light chains
Briefly: basal ATPase assay (NADH-linked). Format: biochemical.

In experiment [5] the target is T1, PfMyoA (Plasmodium falciparum myosin A). Briefly: X-ray crystal structure, […] Å. Further details: gene MyoA; with PfELC and PfMTIP light chains. Format: binding. This is another data set of the same source.
Target sequence in this assay (Q8IDR3 whole entry): as the sequence (Q8IDR3 whole entry) above
Target sequence in this assay (Q8IJM4 entry or part of it, further chain): as the sequence (Q8IJM4 entry or part of it, further chain) above

The Kd is the free concentration of one partner at which half of the binding sites on the other are occupied at equilibrium, for simple one-to-one binding. For orientation: IC50 means the concentration that inhibits the measured activity by half. The low end stands for higher potency, the high end for lower potency.

T2 sequence (Q8IDR3 whole entry, stated change not applied): as the sequence (Q8IDR3 whole entry) above
T2 sequence (Q8IJM4 whole entry, stated change not applied, further chain): as the sequence (Q8IJM4 entry or part of it, further chain) above

With `Nc1ncnc2c1ncn2[C@@H]1O[C@H](CO[P@](=O)(O)O[P@](=O)(O)O[P@@](=O)(O)S)[C@@H](O)[C@H]1O` [ATPγS], the “X-ray crystal structure, 2.2 Å” value in experiment [1] was “unhydrolyzed Mg.ATPyS occupies the active site of PfMyoA/ATPγS/KNX-002”. Turning to mant-ADP, the Kd in experiment [2] came out at 3.5 µM. `COc1ccc(C2(NCc3c[nH]nc3-c3cccs3)CC2)cc1` [KNX-002] registered a Kd in experiment [3] of 8.6 µM. The same compound came in with an IC50 in experiment [4] of 52 µM.

Turning to `Nc1ncnc2c1ncn2[C@@H]1O[C@H](COP(=O)(O)OP(=O)(O)O)[C@@H](O)[C@H]1O` [ADP], the “X-ray crystal structure, 2.03 Å” value in experiment [5] was “the substrate was hydrolyzed in PfMyoA/ATPγS/Apo leaving only Mg.ADP in the active site”.
